# Key:
# Test in all cases: relative viability (nuclei count vs DMSO), 5 days (fraction); higher = more cells survive
# Vandetanib + Lapatinib = compound: COc1cc2/c(=N/c3ccc(Br)cc3F)nc[nH]c2cc1OCC1CCN(C)CC1 [Vandetanib] + CS(=O)(=O)CCNCc1ccc(-c2ccc3ncnc(Nc4ccc(OCc5cccc(F)c5)c(Cl)c4)c3c2)o1 [Lapatinib] (partner 2 µM)
# Summary of the method: (§1)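 The day after seeding in 1536-well plates, lung cancer cell lines were treated by pin tool with a single drug, or with a fixed anchor-drug dose together with five library-drug doses (not always all listed) in √10 steps. After 5 days, a combined fix-and-stain solution (final 0.05% Triton X-100, 1% formaldehyde, 1 ug/ml Hoechst) was added. Nuclei counted on 4× images gave relative viability as treated counts over vehicle counts, reported as the median of duplicate plates.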
# NVP-TAE684 + Pictilisib = compound: COc1cc(N2CCC(N3CCN(C)CC3)CC2)ccc1Nc1ncc(Cl)c(Nc2ccccc2S(=O)(=O)C(C)C)n1 [NVP-TAE684] + CS(=O)(=O)N1CCN(Cc2cc3nc(-c4cccc5[nH]ncc45)nc(N4CCOCC4)c3s2)CC1 [Pictilisib] (partner 1 µM)
# Summary of the method: as §1
# NVP-TAE684 + Palbociclib = compound: COc1cc(N2CCC(N3CCN(C)CC3)CC2)ccc1Nc1ncc(Cl)c(Nc2ccccc2S(=O)(=O)C(C)C)n1 [NVP-TAE684] + CC(=O)c1c(C)c2cnc(Nc3ccc(N4CCNCC4)cn3)nc2n(C2CCCC2)c1=O [Palbociclib] (partner 0.5 µM)
# Summary of the method: as §1
# Vandetanib + Foretinib = compound: COc1cc2/c(=N/c3ccc(Br)cc3F)nc[nH]c2cc1OCC1CCN(C)CC1 [Vandetanib] + COc1cc2c(Oc3ccc(NC(=O)C4(C(=O)Nc5ccc(F)cc5)CC4)cc3F)ccnc2cc1OCCCN1CCOCC1 [Foretinib] (partner 0.25 µM)
# Summary of the method: as §1
Cell Line,relative viability (Vandetanib + Lapatinib; first compound 0.02 µM),relative viability (Vandetanib + Lapatinib; first compound 0.06325 µM),relative viability (Vandetanib + Lapatinib; first compound 0.2 µM),relative viability (Vandetanib + Lapatinib; first compound 0.6325 µM),relative viability (Vandetanib + Lapatinib; first compound 2 µM),relative viability (NVP-TAE684 + Pictilisib; first compound 0.2 µM),relative viability (NVP-TAE684 + Pictilisib; first compound 0.6325 µM),relative viability (NVP-TAE684 + Pictilisib; first compound 2 µM),relative viability (NVP-TAE684 + Palbociclib; first compound 0.2 µM),relative viability (NVP-TAE684 + Palbociclib; first compound 0.6325 µM),relative viability (NVP-TAE684 + Palbociclib; first compound 2 µM),relative viability (Vandetanib + Foretinib; first compound 0.02 µM),relative viability (Vandetanib + Foretinib; first compound 0.06325 µM),relative viability (Vandetanib + Foretinib; first compound 0.2 µM),relative viability (Vandetanib + Foretinib; first compound 0.6325 µM),relative viability (Vandetanib + Foretinib; first compound 2 µM)
EMC-BAC-2,0.906,0.87,0.435,0.866,0.95,0.527,0.513,0.456,0.483,0.499,0.357,0.996,0.934,0.307,0.965,0.958
NCI-H1437,0.758,0.767,0.764,0.76,0.806,0.369,0.433,0.297,0.321,0.291,0.231,1.26,1.25,0.271,1.35,1.19
NCI-H1944,0.818,0.848,0.798,0.845,0.808,0.334,0.308,0.3,0.313,0.321,0.236,0.895,0.887,0.904,0.813,0.783
NCI-H838,0.937,0.953,0.958,0.958,0.99,0.408,0.356,0.235,0.199,0.197,0.141,1.08,1.01,0.282,1.06,1.05
HCC-827,0.195,0.18,0.183,0.181,0.185,1.14,0.84,0.968,0.452,0.511,0.5,1.07,1,0.706,0.296,0.169
NCI-H2342,,,,,,,,,0.499,0.459,0.457,1.08,1.01,1.14,1.17,0.923
LOU-NH91,0.739,0.761,0.783,0.764,0.799,0.635,0.462,0.481,0.548,0.504,0.502,0.972,0.807,0.787,0.713,0.578
NCI-H3122,1.05,0.975,1.04,1.06,1,0.211,0.181,0.202,0.103,0.0833,0.0801,0.984,0.972,0.888,0.944,0.94
NCI-H1563,0.957,0.882,1.39,0.953,1.03,0.597,0.63,0.495,,,,0.959,0.96,0.885,0.806,0.866
NCI-H1734,0.951,1.02,1.11,1.04,0.991,0.422,0.364,0.336,0.375,0.324,0.316,0.825,0.913,0.169,0.903,0.771
EPLC-272H,1.05,0.791,0.933,1.02,0.168,0.285,,0.184,0.324,0.321,0.27,0.592,,0.708,0.708,0.474
RERF-LC-KJ,0.848,0.839,0.827,0.843,0.878,0.613,0.484,0.494,1.14,1.11,0.907,0.875,0.951,0.904,0.882,0.937
EBC-1,0.212,0.204,0.19,0.211,0.183,0.364,0.348,0.212,,,,0.0974,0.0982,0.108,0.0939,0.0987
HARA,0.676,0.558,0.588,0.773,0.764,0.459,0.238,0.275,0.297,0.234,0.164,0.889,0.753,0.36,0.89,0.735
NCI-H1651,0.776,0.834,0.743,0.698,0.846,0.366,0.629,0.402,0.506,0.572,0.468,0.938,0.721,0.13,0.786,0.708
NCI-H2405,1.1,0.842,1.25,1.14,0.316,0.522,0.348,0.284,0.524,0.525,0.337,1.01,0.81,1.08,1.07,0.99
NCI-H596,1.1,0.912,1.11,1.1,0.947,0.396,0.372,0.335,,,,0.918,0.785,0.741,0.838,0.731
NCI-H2009,0.848,0.887,1.04,0.981,1.06,0.949,0.68,0.514,0.2,0.183,0.203,1.26,1.14,0.197,1.27,1.22
NCI-H2170,0.264,0.253,0.225,0.271,0.269,0.272,0.248,0.275,0.33,0.382,0.375,1.04,0.57,1.06,0.978,1.03
NCI-H1648,,,,,,,,,0.241,0.295,0.202,,,,,
NCI-H1623,,,,,,,,,,,,0.913,0.829,0.8,0.827,0.764
LU99A,0.973,0.869,1.01,0.828,1.04,0.288,0.362,0.249,0.373,0.429,0.254,0.842,0.757,0.878,0.783,0.823
PC-3 [JPC-3],0.442,0.482,0.49,0.458,0.41,0.697,0.684,0.65,0.53,0.521,0.422,0.984,0.904,0.936,0.894,0.468

Cell Line,relative viability (Vandetanib + Lapatinib; first compound 0.02 µM),relative viability (Vandetanib + Lapatinib; first compound 0.06325 µM),relative viability (Vandetanib + Lapatinib; first compound 0.2 µM),relative viability (Vandetanib + Lapatinib; first compound 0.6325 µM),relative viability (Vandetanib + Lapatinib; first compound 2 µM),relative viability (NVP-TAE684 + Pictilisib; first compound 0.2 µM),relative viability (NVP-TAE684 + Pictilisib; first compound 0.6325 µM),relative viability (NVP-TAE684 + Pictilisib; first compound 2 µM),relative viability (NVP-TAE684 + Palbociclib; first compound 0.2 µM),relative viability (NVP-TAE684 + Palbociclib; first compound 0.6325 µM),relative viability (NVP-TAE684 + Palbociclib; first compound 2 µM),relative viability (Vandetanib + Foretinib; first compound 0.02 µM),relative viability (Vandetanib + Foretinib; first compound 0.06325 µM),relative viability (Vandetanib + Foretinib; first compound 0.2 µM),relative viability (Vandetanib + Foretinib; first compound 0.6325 µM),relative viability (Vandetanib + Foretinib; first compound 2 µM)
A549,1.05,0.935,0.905,1.01,0.946,0.534,0.407,0.108,,,,1.05,0.961,0.992,0.987,0.854
HCC-44,0.917,1,1.06,0.968,0.996,0.658,0.602,0.412,1.01,0.986,0.867,,,,,
H3255,0.26,0.231,0.244,0.213,0.202,0.454,0.424,0.256,0.324,0.299,0.296,0.904,0.824,0.858,0.689,0.345
LXF-289,0.899,0.842,0.89,0.871,0.887,0.717,0.812,0.578,0.56,0.618,0.643,1.01,0.954,0.978,0.968,0.937
PC-14,0.295,0.382,0.308,0.273,0.282,0.726,0.589,0.157,0.434,0.398,0.0888,0.955,0.916,0.959,0.447,0.196
NCI-H661,0.547,0.532,0.555,0.607,0.365,0.449,0.426,0.429,0.423,0.378,0.424,0.972,0.997,0.999,1.07,0.847
EKVX,0.2,0.184,0.183,0.2,0.215,0.437,0.354,0.319,0.358,0.351,0.34,0.821,0.695,0.795,0.794,1.17
Calu-6,1.08,0.966,1.12,0.94,1.07,0.954,0.741,0.444,,,,0.809,0.86,0.902,0.853,0.856
NCI-H1703,1.13,,1.24,0.932,0.417,0.225,0.243,0.172,,,,0.338,0.346,0.42,0.328,0.339
NCI-H322M,0.6,0.534,0.567,0.516,0.5,0.43,0.463,0.388,0.425,0.43,0.375,0.983,0.889,0.959,0.841,0.674
SK-MES-1,0.474,0.499,0.489,0.471,0.459,0.475,0.393,0.309,0.347,0.313,0.296,0.986,0.802,1.01,0.83,0.665
NCI-H1299,0.965,0.95,0.892,0.968,0.948,0.601,0.707,0.364,,,,1.11,1.03,1.12,1.12,1.1
NCI-H1355,0.984,0.926,0.963,1.05,0.924,0.467,0.323,0.343,0.366,0.368,0.269,0.94,0.981,1,0.936,0.946
ChaGo-K-1,,,,,,1.14,0.424,0.776,1.04,,0.7,0.958,0.962,0.939,0.936,0.905
NCI-H2126,0.698,0.747,0.805,0.724,0.768,0.491,0.501,0.428,0.34,0.329,0.327,1.17,1.16,1.11,1.14,1.11
NCI-H520,0.679,0.807,0.918,0.936,0.831,0.337,0.3,0.228,0.227,0.267,0.152,0.623,0.682,0.194,0.754,0.806
SW 900,,,,,,,,,0.576,0.456,0.43,0.927,0.779,0.143,1,0.917
NCI-H441,,,,,,0.515,0.459,0.321,0.182,0.192,0.154,1.05,0.816,0.264,0.978,1.01
NCI-H522,,,,,,,,,0.973,0.99,0.893,,,,,
IA-LM,0.762,0.737,0.953,0.798,0.987,0.253,0.176,0.202,,,,1.32,0.981,1.11,1.33,1.12
NCI-H1792,0.886,0.824,0.869,0.874,0.862,0.227,0.256,0.232,0.606,0.615,0.648,,,,,
LCLC-103H,,,,,,0.71,0.567,0.451,0.482,0.447,0.413,0.864,0.786,0.679,0.899,0.714

# Reference: the supplement of paper PMC10307832
